Data on one compound can be found in US7625889B2, “Substituted bis aryl and heteroaryl compounds as selective 5HT2A antagonists” (Aventis Pharmaceuticals Inc., priority 2005, dated 2009).

The subject of this assay is newborn Sprague Dawley rats. Put plainly: Obstructive Sleep Apnea Studies (L-tryptophan plus pargyline). It is filed as in vivo, rat. Here is the method:
Intraperitoneal application of L-tryptophan (10 mg/kg) and pargyline (50 mg/kg) to anaesthetized newborn rats depresses the amplitude of the inspiratory discharges of the genioglossal muscle and induces obstructive apneas (OA). The following procedure describes how to determine the efficacy of the compounds of this invention when compared with the efficacy of theophylline.
Experiments are carried out on newborn Sprague Dawley rats. The animals are anaesthetized by intraperitoneal injection of low doses of sodium pentobarbitone (7-10 mg/kg), kept lying (dorsal cubitus) on a warming blanket and are spontaneously ventilating.
The electromyogram (EMG) activity of the genioglossal muscles and the diaphragm are recorded with fine insulated wires (bipolar recordings) inserted within the muscles, filtered (100-3,000 Hz), amplified (×5-10,000) and integrated (time constant 50 ms). The rib cage movements are recorded via a captor gently touching the lower ribs and/or the abdominal wall. The air flow changes resulting from the respiratory chest movements are recorded via a facial mask and a highly sensitive pressure recorder. […]
Effects of theophylline pre-treatment on the occurrence of obstructive apneas induced by 1-tryptophan and pargyline injection are measured as follows: Five newborn rats receive theophylline at 10 mg/kg and 5 other animals receive theophylline at 30 mg/kg. […]

The structures appear in SMILES notation.

As to `Cn1c(=O)c2[nH]cnc2n(C)c1=O` [theophylline], the “induction of OAs after L-Trp+Prg injection” value (theophylline 10 or 30 mg/kg) is “not prevented”. Also, where the note is “theophylline pre-treatment 10 mg/kg or 30 mg/kg”, the “depression of amplitude of GG inspiratory discharges by L-Trp+Prg injection” value is “not prevented”.
